According to patent US9974849B2, “Human Papilloma virus therapeutic vaccine” (The Board of Trustees of the University of Arkansas, priority 2013, dated 2018):

Key:
[1] = Solubilizing HPV E6 peptides in buffer; assay type: physicochemical
Method: We attempted to make a pharmaceutical formulation with four HPV E6 peptides. The 4 peptides were peptides consisting of residues 1-45, 46-80, 81-115, and 116-158 of SEQ ID NO:1. Each of the peptides was amidated at its carboxyl terminus and acetylated at its amino terminus. The peptides were each chemically synthesized.
For the pharmaceutical formulation, this was mixed with trehalose as a stabilizing agent and glycine as tonicity modifier. The final concentrations of the formulation were 10 mM glutamate, 1.0% w/v trehalose, 2.0% w/v glycine, and 0.714 mg/ml each of the four peptides.

[2] = system: CD3 T cells co-cultured with autologous LCs; test: T cell proliferation induced by treated LCs (alamarBlue); assay type: cell-based, human; settings: 7 days co-culture

Substance: Ac-SEYRHYCYSLYGTTLEQQYNK PLCDLLIRCINCQK-NH2 [E6 81-115]
- Solubility ([1]; added to 10 mM glutamate, pH 4.0 solution already containing solubilized E6 1-45, E6 46-80, E6 116-158, 5 mg/ml for each of the four peptides): could be solubilized and will stay soluble
- Solubility ([1]; alone, in any suitable buffer for manufacturing): insoluble

Substance: tetanus toxoid
- Subjects with measurable proliferation (increased fluorescence of ≥5000) [2]: subjects 2 and 5
- T-cell proliferation ([2]; over media): no significant increase over media
